Reference: PMC6277767, “Broad and Region-Specific Impacts of the Synthetic Cannabinoid CP 55,940 in Adolescent and Adult Female Mouse Brains” (Frontiers in Molecular Neuroscience, 2018)

Tested on: CD1 female mouse brain lipidome
Assay: Brain-region lipid levels (HPLC/MS/MS lipidomics) 2 h after single i.p. 3 mg/kg CP 55,940 vs vehicle
Assay type: in vivo
Parameters: N-arachidonoyl phenylalanine level, Mean / N-stearoyl tryptophan level, Mean / N-stearoyl proline level, Mean / N-stearoyl leucine level, Mean / N-stearoyl phenylalanine level, Mean / N-stearoyl serine level, Mean / N-stearoyl methionine level, Mean: unit: moles per gram
Settings: thalamus
Description: The Bloomington Institutional Animal Care and Use Committee of Indiana University reviewed and approved the animal procedures. Female mice from the CD1 strain were utilized to match our study examining THC’s effects on the brain lipidome ([Leishman et al., 2018]). Mice were given a single i.p. injection of either 3 mg/kg CP or 1:1:18 cremophor:ethanol:saline vehicle (please refer to the section “3 mg/kg CP Is Relevant for Synthetic Cannabinoid Abuse and Has Stronger Effects on the Female Mouse Brain Lipidome During Adolescence” for a justification of dose and use of female mice). Three different age groups were given injections: PND 35 and PND 50 adolescents, and adult mice (PND 113). At least eight mice in each age group received CP and at least eight received vehicle. Matching the THC study time course ([Leishman et al., 2018]), mice were sacrificed via rapid decapitation 2 h after injection. Brains were immediately removed and flash-frozen in liquid nitrogen, and then stored at -80°C until dissections were performed. Brains were dissected on an ice-cold dissection plate into the following regions: STR, HIPP, CER, THAL, CTX, HYP, MID, and STEM. These abbreviations for these brain areas will be used exclusively when discussing the results generated by these specific dissections. Each dissected area was immediately placed in liquid nitrogen and then stored at -80°C until used for lipid extraction.
Tissue extracts were performed as previously described ([Bradshaw et al., 2006]; [Stuart et al., 2013]; [Raboune et al., 2014]; [Leishman et al., 2016a],[b], [2017], [2018]). First, samples were shock frozen in liquid nitrogen, weighed, and transferred to a centrifuge tube. The mass of the largest sample was multiplied by 50 to determine how many milliliters of HPLC-grade methanol (Fisher, Fair Lawn, NJ, United States) to add. Then, samples were spiked with 500 pmol deuterium-labeled NAGly (d8NAGly; Cayman Chemical, Ann Arbor, MI, United States). Samples were placed on ice in darkness for 2 h then individually homogenized and centrifuged at 19,000 × g for 20 min at 20°C. Supernatants were diluted with HPLC water (purified in house) to make a solution of 75% water, 25% supernatant. Lipids were partially purified on C18 solid phase extraction columns (Agilent, Palo Alto, CA, United States). A series of four elutions with 1.5 mL of 60%, 75%, 85%, and 100% methanol were collected ([Stuart et al., 2013]; [Leishman et al., 2016a],[b], [2018]).
As previously described ([Bradshaw et al., 2006]; [Tan et al., 2006]; [Smoum et al., 2010]; [Stuart et al., 2013]; [Tortoriello et al., 2013]; [Raboune et al., 2014]; [Leishman et al., 2016a],[b], [2017], [2018]), samples were analyzed using an Applied Biosystems API 3000 triple quadrupole mass spectrometer with electrospray ionization (Foster City, CA, United States). Using an Agilent XDB-C18 reversed phase analytical column and optimized mobile phase gradients, 20 μL from each elution were chromatographed. Two Shimadzu 10ADvp pumps (Columbia, MD, United States) provided the pressure for gradient elution. Mobile phase A: 20% methanol, 80% water (v/v) and 1 mM ammonium acetate (Sigma, St. Louis, MO, United States). Mobile phase B: 100% methanol, 1 mM ammonium acetate. Every method run began with 0% mobile phase B, reached 100% mobile phase B flowing at 0.2 mL/min, and gradually returned to 0% mobile phase B.
This screening library will be referred to as the lipidome when discussing data from this study. HPLC/MS/MS data were analyzed using Analyst software (Applied Biosystems) ([Bradshaw et al., 2006]; [Tan et al., 2006]; [Stuart et al., 2013]; [Tortoriello et al., 2013]; [Raboune et al., 2014]; [Leishman et al., 2016a],[b], [2017], [2018]). Chromatograms (Supplementary Figure 3) were generated by determining the retention time of analytes from the analytical column with a [M-1] or [M+1] parent peak and a fragmentation peak corresponding to the programmed values. […]

[1] = PND 50 female mice, 3 mg/kg CP 55,940
[2] = WT adult female mice, 3mg/kg CP 55,940

CCCCCCC(C)(C)c1ccc([C@@H]2C[C@H](O)CC[C@H]2CCCO)c(O)c1 [CP 55,940]
N-palmitoyl serine: Direction (relative to Veh) (PND 50, 3 mg/kg CP 55,940): ↓
N-palmitoyl serine: Magnitude (x Veh level) (PND 50, 3 mg/kg CP 55,940): 0.82 x Veh level
N-stearoyl serine: Direction (relative to Veh) (PND 50, 3 mg/kg CP 55,940): ↓
N-stearoyl serine: Magnitude (x Veh level) (PND 50, 3 mg/kg CP 55,940): 0.87 x Veh level
Oleic acid: Direction (relative to Veh) (PND 50, 3 mg/kg CP 55,940): ↓
Oleic acid: Magnitude (x Veh level) (PND 50, 3 mg/kg CP 55,940): 0.83 x Veh level
PGE2: Direction (relative to Veh) (PND 50, 3 mg/kg CP 55,940): ↓
PGE2: Magnitude (x Veh level) (PND 50, 3 mg/kg CP 55,940): 0.74 x Veh level
PGF2α: Direction (relative to Veh) (PND 50, 3 mg/kg CP 55,940): ↓
PGF2α: Magnitude (x Veh level) (PND 50, 3 mg/kg CP 55,940): 0.84 x Veh level
2-arachidonoyl glycerol level, Mean [1]: 2.19E-10
2-linoleoyl glycerol level, Mean [1]: 2.06E-10
2-oleoyl glycerol level, Mean [1]: 2.79E-09
2-palmitoyl glycerol level, Mean [1]: 1.02E-09
6-ketoPGF1α level, Mean [1]: 1.21E-11
11-OH-THC level, Mean [1]: BDL
11-nor-9-carboxyTHC level, Mean [1]: BDL
Arachidonic acid level, Mean [1]: 3.32E-10
Cannabidiol level, Mean [1]: BDL
Linoleic acid level, Mean [1]: 2.28E-10
N- stearoyl valine level, Mean [1]: 1.2E-13
N-arachidonoyl GABA level, Mean [1]: 1.06E-11
N-arachidonoyl dopamine level, Mean [1]: BDL
N-arachidonoyl ethanolamine level, Mean [1]: 3.67E-11
N-arachidonoyl glycine level, Mean [1]: 2.22E-12
N-arachidonoyl phenylalanine level, Mean [1]: 2.35E-13
N-arachidonoyl proline level, Mean [1]: BDL
N-arachidonoyl serine level, Mean [1]: 9.47E-12
N-arachidonoyl taurine level, Mean [1]: 2.48E-11
N-arachidonoyl tryptophan level, Mean [1]: BDL
N-arachidonoyl tyrosine level, Mean [1]: 3.46E-13
N-docosahexaenoyl GABA level, Mean [1]: 1.17E-12
N-docosahexaenoyl ethanolamine level, Mean [1]: 4.85E-11
N-docosahexaenoyl glycine level, Mean [1]: 2.76E-13
N-docosahexaenoyl leucine level, Mean [1]: 1.83E-13
N-docosahexaenoyl proline level, Mean [1]: BDL
N-docosahexaenoyl serine level, Mean [1]: 1.8E-11
N-docosahexaenoyl tryptophan level, Mean [1]: BDL
N-docosahexaenoyl tyrosine level, Mean [1]: 5.89E-13
N-docosahexaenoyl valine level, Mean [1]: BDL
N-linoleoyl GABA level, Mean [1]: 6.3E-13
N-linoleoyl ethanolamine level, Mean [1]: 5.72E-11
N-linoleoyl glycine level, Mean [1]: 1.48E-13
N-linoleoyl leucine level, Mean [1]: 4.17E-14
N-linoleoyl proline level, Mean [1]: BDL
N-linoleoyl serine level, Mean [1]: 6.59E-11
N-linoleoyl tryptophan level, Mean [1]: BDL
N-linoleoyl valine level, Mean [1]: BDL
N-nervonoyl valine level, Mean [1]: BDL
N-oleoyl GABA level, Mean [1]: 4.02E-12
N-oleoyl alanine level, Mean [1]: 7.11E-13
N-oleoyl dopamine level, Mean [1]: BDL
N-oleoyl ethanolamine level, Mean [1]: 9.26E-11
N-oleoyl glycine level, Mean [1]: 1.74E-12
N-oleoyl leucine level, Mean [1]: 5.99E-13
N-oleoyl methionine level, Mean [1]: 2.91E-13
N-oleoyl phenylalanine level, Mean [1]: 9.22E-13
N-oleoyl proline level, Mean [1]: BDL
N-oleoyl serine level, Mean [1]: 1.27E-10
N-oleoyl tryptophan level, Mean [1]: BDL
N-oleoyl tyrosine level, Mean [1]: 4.03E-13
N-palmitoyl GABA level, Mean [1]: 1.06E-11
N-palmitoyl alanine level, Mean [1]: 2.52E-12
N-palmitoyl ethanolamine level, Mean [1]: 7.34E-11
N-palmitoyl glycine level, Mean [1]: 9.61E-12
N-palmitoyl leucine level, Mean [1]: 1.53E-12
N-palmitoyl methionine level, Mean [1]: 1.27E-12
N-palmitoyl phenylalanine level, Mean [1]: 1.34E-12
N-palmitoyl proline level, Mean [1]: BDL
N-palmitoyl serine level, Mean [1]: 2.63E-11
N-palmitoyl tryptophan level, Mean [1]: BDL
N-palmitoyl tyrosine level, Mean [1]: 8.81E-13
N-palmitoyl valine level, Mean [1]: 1.92E-13
N-stearoyl GABA level, Mean [1]: 1.06E-11
N-stearoyl alanine level, Mean [1]: 5.6E-13
N-stearoyl ethanolamine level, Mean [1]: 3.31E-11
N-stearoyl glycine level, Mean [1]: 1.16E-12
N-stearoyl leucine level, Mean [1]: 1.04E-12
N-stearoyl methionine level, Mean [1]: 8.73E-13
N-stearoyl phenylalanine level, Mean [1]: 1.21E-12
N-stearoyl proline level, Mean [1]: BDL
N-stearoyl serine level, Mean [1]: 4.06E-11
N-stearoyl tryptophan level, Mean [1]: BDL
N-stearoyl tyrosine level, Mean [1]: 1.18E-13
Oleic acid level, Mean [1]: 3.18E-10
PGE2 level, Mean [1]: 8.74E-11
THC level, Mean [1]: BDL
2-arachidonoyl glycerol level, Mean [2]: 3E-09
2-linoleoyl glycerol level, Mean [2]: 2.71E-10
2-oleoyl glycerol level, Mean [2]: 3.61E-09
2-palmitoyl glycerol level, Mean [2]: 8.84E-11
6-ketoPGF1α level, Mean [2]: 3.33E-11
Arachidonic acid level, Mean [2]: 9.32E-10
Linoleic acid level, Mean [2]: 4.92E-10
N-arachidonoyl GABA level, Mean [2]: 2.04E-11
N-arachidonoyl alanine level, Mean [2]: 9.44E-13
N-arachidonoyl ethanolamine level, Mean [2]: 1.69E-11
N-arachidonoyl glycine level, Mean [2]: 5.38E-13
N-arachidonoyl phenylalanine level, Mean [2]: 1.15E-13
N-arachidonoyl taurine level, Mean [2]: 5.3E-11
N-arachidonoyl tyrosine level, Mean [2]: 6.37E-13
N-docosahexaenoyl GABA level, Mean [2]: 9.36E-12
